Where “and” joins values, the source holds several entries; their conditions need not be identical. Equal entries are not always repeated. Entries after “also recorded” stand apart in the source; their conditions may differ. Positions of bridges follow the written chain, without caps; N, C: chain ends. Chains are numbered I, II in the order given. No end group written: not given here.

In series [1] the test system is rat cerebellar granule neurons cultured on monolayers of NIH 3T3 fibroblasts. Description: in vitro neurite outgrowth co-culture assay (axon regeneration). It is filed as cell-based. The procedure: An example of such an assay is a co-culture assay in which neurons are cultured on top of cellular monolayers for 16 hours, before being fixed and stained with a neuron-specific antibody. The mean length of the longest neurite per cell can then be determined by fluorescence microscopy using an appropriate image analysis programme. The neurons may be, for example, (in this case cerebellar granule cell neurons, hippocampal, dorsal root ganglion, olfactory, motor or dopaminergic neurons. The cellular monolayer is, for example NIH 3T3 fibroblasts.
Monolayers of NIH 3T3 fibroblasts were established by seeding 80,000 cells per well in Lab-Tek 8-chamber slides previously coated sequentially with poly-L-lysine and fibronectin and culturing them overnight in DMEM+10% FCS growth medium.
Cerebellum was dissected from post-natal day 2-4 rat pups and the meninges and extraneous tissue discarded. Cerebellum was chopped into small pieces and trypsinised for 10 minutes at 37° C. Trypsin was neutralised using growth medium and the cells pelletted at 1000×g for 7 minutes. Cerebellar neurons were then resuspended in SATO growth medium containing 2% FCS, counted, and plated on top of the fibroblast monolayer at a density of 1,500 neurons per well. After 16 hours, cocultures were fixed with 4% para-formaldehyde and stained with an anti-GAP43 neuron-specific antibody, which was a gift from Dr Graham Wilkin, Imperial College Department of Biochemistry, London, but any other neuron-specific marker can be used.
The mean neurite length of 150-200 neurons per well was determined using a fluorescent microscope and Zeiss KS300 imaging software.
Peptides A, A(d), B, C, D, E, and F were each incorporated in the SATO medium at a range of concentrations from 0 to 200 μg/ml. Nerve growth factor (NGF) and fibroblast growth factor (FGF2) were used as controls at the same range of concentrations.

The test system of the next series is NIH 3T3 fibroblasts. Description: survival of 3T3 fibroblasts in serum-free DMEM (MTS and morphologic method, Example 5a). The class given is cell-based. The protocol:
NIH 3T3 fibroblasts were plated in each well of a 96-well microtitre plate at a density of 7,000 cells per well in DMEM containing 3% FCS and left to attach overnight. The following day the growth medium was removed and replaced with 0.1 ml DMEM supplemented with FGF or Peptide A(d) or both, eight wells for each condition. The negative control was DMEM alone (maximal cell death) and the positive control was supplementation with 0.5% FCS (maximal cell survival).
Six days later (seven days from first plating the cells), the relative number of living cells in each well was assessed by adding the mitochondrial substrate MTS, [3-(4,5-dmethylthiazol-2-yl)-5-(3-carboxymethoxyphenyl)-2-(4-sulphophenyl)-2H-tetrazolium, inner salt), for four hours before reading the optical density on a microtitre plate reader at a wavelength of 490 nm. The optical density gives a measure of the number of respiring cells present in each well at the end of the assay period.
In addition to the biochemical assay, survival was assessed qualitatively using a morphologic method in which cells were plated in 8-chamber Lab Tek slides in DbEM alone (negative control), or DMEM supplemented with 0.5 ng/ml FGF2; 0.5% FCS (positive control), or 25-200 μg/ml Peptide A(d). After three days the cells were fixed with 4% paraformaldehyde, permeablised with methanol and stained with TRITC-conjugated falloidin to visualise the cell cytoskeleton.

The test system of a further series is cerebellar neurons. Description: survival of neurons (Example 5b). It is filed as cell-based.
Series [2] deals with NIH 3T3 cells. Description: NIH 3T3 cell survival MTS assay in serum-free DMEM (Example 6). The class given is cell-based. The protocol:
NIH 3T3 cells are plated in 96-well plates at a density of 5,500 cells/well in 100 μl DMEM containing 0.5% FCS. After 24 hours, this medium is aspirated from the wells and replaced with 100 μl serum-free DMEM alone, or supplemented with 0.5% FCS (positive control), or a single potential survival factor, with four identical wells set up for each condition. The cells are left for up to seven days at 37 degrees and 8% CO2 before the cell survival is determined using an MTS assay. In this assay 20 μl of MTS substrate is added to each 100 μl well and the plate left in the incubator for up to four hours. Respiring cells produce a coloured reaction product that can be read using a spectrophotometer at 490 nm. […] The mean absorbance at 490 nm+/−SEM is determined for the four identically set up wells. Wells containing a known survival factor such as insulin will contain more living cells after three days than cells cultured in unsupplemented medium.
Background: Formazan colour is commonly taken as a measure of viable cells.

In a further series the test system is L6 cell line. Description: survival of L6 cell line lacking FGF receptors. It is filed as cell-based. Conditions: FGF2 0.1, 1 and 10 ng/ml; Peptide A(d) 100 and 400 μg/ml. The protocol:
FIG. 2d compares the effects of DMEM, FCS, FGF2 at 0.1, 1 and 10 ng/ml, insulin at 0.5 and 5 μg/ml, and Peptide A(d) at 100 and 400 μg/ml.

The next series concerns MAP kinase. Description: Western blot for tyrosine phosphorylated MAP kinase in NIH 3T3 cells. It is filed as cell-based. Conditions: peptide 400 μg/ml, 10 minutes. The procedure: A Western blot (FIG. 2f) was obtained as follows: one million NIH 3T3 cells were serum starved for 24 hours then challenged with the following agents: DMEM, 10% FCS, 0.1 ng/ml FGF2, 1 ng/ml FGF2, 10 ng/ml FGF2, 5 μg/ml insulin, 400 μg/ml peptide 52 for 10 minutes at 37 degrees Celsius before being lysed in sample buffer and band separated by PAGE. Proteins were transferred to PVDF membranes and probed with an antibody that recognises tyrosine phosphorylated MAP kinse (upper panel).
Background: Immunoblotting shows a protein as a band on a membrane.

Series [3] has as its system NIH 3T3 cells. Description: NIH 3T3 survival and morphology, TRITC-conjugated phalloidin staining. It is filed as cell-based. To be noted: three days; insulin 0.5 pg/ml, FGF2 0.1 ng/ml, Peptide A(d) 10 ng/ml.
In series [4] the test system is Oligodendrocyte progenitors (O4 positive). The class given is cell-based, rat. To be noted: six days in culture. The text has this: Oligodendrocyte progenitors (O4 positive) are purified from postnatal day 4 rat cerebral cortex. First a trypsinised preparation of cortical cells is dissociated to single cell suspension and pre-plated to remove unwanted adherent cells such as microglia and macrophages. Oligodendrocyte progenitors express the O4 antigen, and can be purified by panning on petri-dishes coated with anti O4 antibodies. Unbound cells are removed by gentle washing, then O4 positive cells are removed by triturating them off the plate with DMEM containing 1% FCS, through a flame-polished pasteur pipette. O4 positive cells are plated on polyornithine-coated glass coverslips at a density of 500,000 cells per well in minimal growth medium containing insulin or the peptide Ac-DRVEPYSSTA[lys]2[lys] i.e. [{Ac-DRVEPYSSTA}2-K]2-K-OH, Peptide A(d), for six days, before being fixed and stained with the anti O4 antibody. Viable O4 positive cells are counted for each condition

In series [5] the test system is cells growing in the presence of FGF2 or Peptide A(d). Description: mitogenesis by observation of cells growing (rounding-up, cell number). It is filed as cell-based. The text has this:
FGF stimulates axonal regeneration, cell survival and mitogenesis. […] This can be seen by the failure of Peptide A(d)-treated cells to show the rounding-up characteristic of cell division, and there is not the increase in cell number observed in the presence of a mitogenic stimulation by FGF2.

The next series concerns NIH3T3 cells. Description: cell survival/proliferation at two plating densities. Conditions: 11,000 cells per well; FGF2 10 ng/ml. The text has this:
FGF2 is a mitogen for a range of cells, including NIH3T3 cells.

Series [6] relates to cells in S phase (bromodeoxyuridine incorporation into DNA). Description: bromodeoxyuridine incorporation (entry into S phase) mitogenicity assay. It is filed as cell-based. To be noted: peptide, any of the concentrations tested. The procedure: The mitogenicity of an agent can be determined by testing its ability to stimulate entry of cells into ‘S’ phase in readiness for cell division. This is done by standard methodology and involves incubating cells in the presence of a potential mitogen in DMEM supplemented with bromodeoxyuridine. After six hours the cells are fixed and stained with an antibody recognising bromodeoxyuridine. Cells in S phase can be distinguished by their incorporation of bromodeoxyuridine into DNA.

On to “I: Ac-DRVEPYSSTAKK / II: Ac-DRVEPYSSTAK / III: Ac-DRVEPYSSTA / IV: Ac-DRVEPYSSTA (amide I:11-IV:C, I:12-II:C, II:11-III:C) [Peptide A(d), [{Ac-DRVEPYSSTA}2-K]2-K-OH]”, for which the “concentration stimulating maximal neurite outgrowth” value in series [1] is on record as 400 nM. The “stimulation of neurite outgrowth (in words)” value in series [1] (agent included in coculture medium, 16 hour culture) was “bi-phasic dose-response curve”. In series [1] (rat cerebellar neurons on 3T3 monolayer, 16 hours), the “peptide concentration giving maximal effects in neurite outgrowth assay” value was 1.5-2.5 μg/ml and ~0.4 μM. Further, the “potency in stimulating neurite outgrowth relative to the monomeric peptide” value in series [1] (versus monomeric peptide) is given as 250 times. Moreover, the “cell survival with combination” value in the series on NIH 3T3 fibroblasts (DMEM supplemented with Peptide A(d) together with FGF2) was “greater than with either agent alone”. Further, the “survival of 3T3 fibroblasts” value with NIH 3T3 fibroblasts (Peptide A(d) alone at 25 μg/ml) is on record as “stimulated the survival of 3T3 fibroblasts to the same extent as 0.125 ng/ml FGF2”. In addition, the “stimulation of survival compared with positive control 0.5% FCS” value in the series with NIH 3T3 fibroblasts (all concentrations (25-200 μg/ml)) was “at least as good as the positive control”. In the series on cerebellar neurons, the “survival of cerebellar neurons” value is given as “stimulate survival of cerebellar neurons”. Moreover, the “survival of NIH3T3 cells in serum-free conditions (in words)” value in the series with NIH 3T3 cells [2] (FGF2 only at low concentrations) is “stimulates dose-dependent survival”. In addition, the “time over which survival is stimulated in serum-free conditions” value with NIH 3T3 cells [2] (maximum time tested) is given as “at least seven days”. Further, the “survival of L6 cell line” value in the series on L6 cell line is recorded as “unable to stimulate the survival”. Further, the MAP kinase activation result is listed as “do not” with MAP kinase, “do not” in the series with MAP kinase (listed as Ac-DRVEPYSSTA[lys]2[lys]) and “did not” with MAP kinase (listed as peptide 52). Moreover, the “cell survival / morphology” value with NIH 3T3 cells [3] is “stimulate cell survival”. The “oligodendrocyte survival (in words)” value in series [4] is given as “dose-dependent survival effect”. In series [5], the “mitogenesis (observation of cells)” value is recorded as “does not stimulate mitogenesis”. The cell proliferation result in the series with NIH3T3 cells was “does not stimulate proliferation”. For the same substance, in [6], the “mitogenicity (entry into S phase)” value was “unable to stimulate entry into S phase; also recorded: not mitogenic at any of the concentrations tested”.

The values above are taken from patent publication US7304129B2 (Imperial Innovations Limited, priority 2000, dated 2007).
